# From publication PMC8123395, “Aggregation and Its Influence on the Bioactivities of a Novel Antimicrobial Peptide, Temporin-PF, and Its Analogues” (International Journal of Molecular Sciences, 2021)
# Like-named read-outs stand apart in the source and are kept apart here. Non-standard residues stand in square brackets, D forms with d. Residues, ends and D or L forms follow the SMILES beside them. No end group written: not given here.
# Experiments:
# [1] = tested on: Klebsiella pneumoniae (ATCC 43816); type: cell-based
# Procedure: (§1) The minimum inhibitory concentration (MIC) and minimum bactericidal concentration (MBC) of peptides against the selected microorganisms were determined using the broth-dilution method, as described in the previous study. […] were used in the assay: Gram-positive bacteria Staphylococcus aureus (NCTC 10788), Enterococcus faecalis (NCTC 12697), and methicillin-resistant S. aureus (MRSA) (NCTC 12493); Gram-negative bacteria Escherichia coli (NCTC 10418), Pseudomonas aeruginosa (ATCC 27853), and Klebsiella pneumoniae (ATCC 43816). All the strains were cultured in Mueller Hinton Broth (MHB), pH 7.4 (Oxiod, Basingstoke, UK). Each peptide was tested at the final concentration from 128 to 1 µM in two-fold dilution. Norfloxacin was applied as the positive control.
# [2] = tested on: methicillin-resistant S. aureus (MRSA) (NCTC 12493); type: cell-based
# Procedure: as §1
# [3] = tested on: Enterococcus faecalis (NCTC 12697); type: cell-based
# Procedure: as §1
# [4] = tested on: Escherichia coli (NCTC 10418); type: cell-based
# Procedure: as §1
# [5] = tested on: Staphylococcus aureus (NCTC 10788); type: cell-based
# Procedure: as §1
# [6] = tested on: Pseudomonas aeruginosa (ATCC 27853); type: cell-based
# Procedure: as §1
# [7] = Circular dichroism, helix content by BeStSel; type: physicochemical; settings: CD, room temperature, BeStSel analysis; for Helix Content % DPPC: 50 μM peptide in 3 mM DPPC SUVs (erythrocyte membrane mimic); for Helix Content % DPPG/DPPE: 50 μM peptide in 3 mM DPPG/DPPE (88:12) SUVs (bacterial membrane mimic); for Helix Content % 50% TFE: 50 μM peptide in 50% TFE/10 mM NH4AC, three scans averaged
# Procedure: Figure 8 CD spectra of TPF and the analogs (50 μM) prepared in 10 mM NH4AC, 50% TFE/10 mM NH4AC, 3 mM DPPG/DPPE (88:12) SUVs, and 3 mM DPPC SUVs. The spectra were averaged over three consecutive scans, and the solvent CD signal was subtracted.
# The determination of the secondary structure of peptides was conducted using a JASCO J-815 CD Spectropolarimeter (JASCO Inc., Tokyo, Japan) as described in the previous study. Then, 50 μM of each peptide sample was prepared in the aqueous 10 mM ammonium acetate (NH4Ac; Sigma-Aldrich, Gillingham, UK) buffer, 50% (v/v) 2,2,2-trifluoroethanol (TFE; Sigma-Aldrich, Gillingham, UK), and 3 mM DPPG:DPPE (88:12) and DPPC small unilamellar liposomes/vesicles (SUVs) that were used to mimic the bacterial and mammalian erythrocyte cell membranes, respectively. The liposome was hydrated in deionized water and then sonicated for 15 min with an interval 30 s in an ice bath for generating SUVs. Samples were loaded in a 1-mm thickness quartz cuvette and analyzed at room temperature with the following parameters: scan range of 190–250 nm, scanning speed of […], 1 nm bandwidth, and 0.5 nm data pitch. The spectra were obtained by averaging data from three scans. The CD spectra were analyzed by BeStSel (http://bestsel.elte.hu/index.php, accessed on 16 May 2020) for the determination of secondary structure content.
# S. aureus mature biofilm = type: cell-based
# Procedure: (§2) MBIC and MBEC assays were performed as previously described with minor modifications. For the MBIC assay, a suspension of broth diluted bacteria culture (5 × 10^5 CFU/mL) was incubated with the peptide solutions at 37 °C for 24 h. For MBEC assay, 100 μL inoculum culture was seeded to a 96-well-flat-bottom plate and incubated at 37 °C for 48 h to obtain the mature biofilm. Afterwards, the plate was washed by sterile phosphate-buffered saline (PBS; Sigma-Aldrich, Gillingham, UK) twice and treated with a series peptide solution at 37 °C for 24 h. Then, all the plates were washed with PBS and stained by 100 μL 0.1% crystal violet solution (Sigma-Aldrich, Gillingham, UK), and further dissolved by 30% acetic acid (Sigma-Aldrich, Gillingham, UK). The absorbance of each well was recorded by Synergy HT plate reader (Biotech, Minneapolis, MN, USA) at 595 nm.
# S. aureus biofilm = type: cell-based; settings: 24 h
# Procedure: as §2
# MRSA biofilm = type: cell-based; settings: 24 h
# Procedure: as §2
# MRSA mature biofilm = type: cell-based
# Procedure: as §2
# [8] = RP-HPLC retention order of mixed peptides (overall hydrophobicity); type: physicochemical; settings: peptides mixed in equal ratio and subjected to RP-HPLC; Supplementary Figure S4
# Procedure: All peptides were chemically synthesized and purified by RP-HPLC. They were further mixed with an equal ratio and subjected to RP-HPLC. […] Subsequently, all peptides (1 mg/mL) were dissolved in a series of widely used culture media (Figure 2).
# N-terminal Phe of temporin was believed to participate in the packaging of “head-tail” oligomerization. […] Furthermore, Trp/D-Trp substitution carried out on des-Phe1 TPF enhanced the peptide aggregation. […] It may be related to the decrease of the helical content; however, it could also be caused by the change of aggregation effects. Previous studies have shown that AMPs with strong antimicrobial activity are present as monomers in an aqueous solution and aggregate on the membrane to disrupt the bacterial cell membrane. […] It has been proposed that some aggregation effects of AMPs could limit the interaction of the peptide with its target, thereby reducing the antibacterial efficacy. In the previous study, the zipper-like motif is associated with the bioactivities as well as the assembly in the LPS micelles, which was considered to arise from hydrophobic interactions mainly. However, the overall hydrophobicity of Trp/D-Trp substituted analogs is less than that of des-Phe1 TPF, as estimated by RP-HPLC analysis. We hypothesize that the enhanced assembly seen for Trp/D-Trp substituted analogs might be related to the increased content of aromatic residues, because it could promote the strength of π stacking or cation-π type interaction. However, the true relation has not been fully clarified so far, and the capability of aromatic moieties to promote aggregation could also be affected by the hydrophobicity, position, and the neighboring side chains in their three-dimensional conformation.
# horse erythrocytes = assay: Hemolysis test; type: cell-based; settings: 2% horse erythrocyte suspension; peptide 128 to 1 µM; comparison among the four peptides
# Procedure: Figure 9 Hemolytic activity of TPF and the analog against horse red blood cell. The percentage of hemolysis was calculated with the absorbance at 570 nm, compared with PBS-treated red blood cells. The error bar represents SD of five replicates.
# The hemolytic activity of each peptide was measured by incubating a range of final peptide concentrations from 128 to 1 µM in a two-fold dilution in a 2% suspension of the horse erythrocytes, as described in a previous study. The absorbance of hemoglobin released from red blood cells was detected at 570 nm. The percentage of hemolysis was calculated by the comparison to the 1% Triton X-100 treated red blood cells.
# [9] = Preliminary observation of solubility / hydrogel formation in PBS; type: physicochemical; settings: peptide 10 mg/mL in PBS
# Procedure: After the identification of TPF, the chemical synthesis of TPF was performed successfully. […] Therefore, we synthesized the des-Phe1 TPF to investigate the correlation between oligomerize effect and bioactivities. […] Therefore, we further substituted Phe with Trp and D-Trp to reveal the relationship between the oligomerization effect and the zipper motif and the influence on bioactivities (Table 1). The correct synthesis of peptides had been checked by MALDI-TOF mass spectrometry (Supplementary Figure S6) and synthetic yields were calculated (Supplementary Figure S7).
# [10] = Observation of aggregation: turbidity (absorbance at 600 nm) in media and salt solutions; type: physicochemical; settings: absorbance 600 nm, three replicates
# Procedure: Figure 3 The absorbance of TPF and the analogs prepared in (a) a series of culture media, including PBS, RPMI1640, RPMI1640 with 10% FBS, TSB, and MHB; 0.25, 0.5, and 1 M of (b) Na2HPO4, (c) CaCl2, and (d) MgCl2 solutions. Peptide solutions were prepared from 1 mg/mL, and the wavelength was set as 600 nm. The error bar represents the standard deviation (SD) with three replicates.
# The method was followed the previous study with modifications. The purified peptides were prepared at 10 mg/mL in water and subsequently diluted with different solutions, including PBS, RPMI1640, RPMI1640 with 10% FBS, TSB, MHB, Na2HPO4 (0.25, 0.5, and 1 M), CaCl2 (0.25, 0.5, and 1 M), and MgCl2 (0.25, 0.5, and 1 M), in a 96-well plate to achieve the final concentration of 1 mg/mL. The turbidity of each well was detected using the absorbance at 600 nm by a plate reader. The peptides dissolved in water were applied as negative control.
# [11] = K. pneumoniae ATCC 43816, broth dilution in MHB pH 7.4, peptide 128 to 1 µM
# [12] = MRSA NCTC 12493, broth dilution in MHB pH 7.4, peptide 128 to 1 µM
# [13] = E. faecalis NCTC 12697, broth dilution in MHB pH 7.4, peptide 128 to 1 µM
# [14] = E. coli NCTC 10418, broth dilution in MHB pH 7.4, peptide 128 to 1 µM
# [15] = S. aureus NCTC 10788, broth dilution in MHB pH 7.4, peptide 128 to 1 µM two-fold dilution
# [16] = P. aeruginosa ATCC 27853, broth dilution in MHB pH 7.4, peptide 128 to 1 µM
compound,measurement,setting,value
CC[C@H](C)[C@H](NC(=O)[C@H](CC(C)C)NC(=O)[C@@H]1CCCN1C(=O)[C@@H](N)CC(C)C)C(=O)N[C@@H](C)C(=O)NCC(=O)N[C@@H](CC(C)C)C(=O)N[C@H](Cc1c[nH]c2ccccc12)C(=O)NCC(=O)N[C@@H](CCCCN)C(=O)N[C@H](C(=O)N[C@H](Cc1c[nH]c2ccccc12)C(N)=O)[C@@H](C)CC [dW-des-Phe1 TPF] (H-LPLIAGL[dW]GKI[dW]-NH2; N-terminus assumed),MBC,"[1]; ATCC 43816, pH 7.4",> 128 µM
same,MIC,"[1]; ATCC 43816, pH 7.4",> 128 µM
same,MBC,"[2]; NCTC 12493, pH 7.4",> 128 µM
same,MIC,"[2]; NCTC 12493, pH 7.4",> 128 µM
same,MBC,"[3]; NCTC 12697, pH 7.4",> 128 µM
same,MIC,"[3]; NCTC 12697, pH 7.4",> 128 µM
same,MBC,"[4]; NCTC 10418, pH 7.4",> 128 µM
same,MIC,"[4]; NCTC 10418, pH 7.4",> 128 µM
same,MBC,"[5]; NCTC 10788, pH 7.4",64 µM
same,MIC,"[5]; NCTC 10788, pH 7.4",64 µM
same,MBC,"[6]; ATCC 27853, pH 7.4",> 128 µM
same,MIC,"[6]; ATCC 27853, pH 7.4",> 128 µM
same,Helix Content % DPPC,[7],8.3%
same,Helix Content % DPPG/DPPE,[7],0.5%
same,Helix Content % 50% TFE,[7],3.0%
same,MBEC,"S. aureus mature biofilm; mature biofilm, 48 h",>128/>128 µM
same,MBIC,S. aureus biofilm; biofilm,>128/>128 µM
same,MBIC,MRSA biofilm; biofilm,>128/>128 µM
same,MBEC,"MRSA mature biofilm; mature biofilm, 48 h",>128/>128 µM
same,"order of retention time (RP-HPLC, used as estimate of overall hydrophobicity)",[8],TPF> des-Phe1 TPF> W-des-Phe1 TPF> dW-des-Phe1 TPF
FLPLIAGLFGKIF-NH2 [TPF],MBC,[1]; [11],> 128 µM
same,MIC,[1]; [11],> 128 µM
same,MBC,[2]; [12],4 µM
same,MIC,[2]; [12],4 µM
same,MBC,[3]; [13],16 µM
same,MIC,[3]; [13],16 µM
same,MBC,[4]; [14],> 128 µM
same,MIC,[4]; [14],> 128 µM
same,MBC,[5]; [15],32 µM
same,MIC,[5]; [15],4 µM
same,MBC,[6]; [16],> 128 µM
same,MIC,[6]; [16],> 128 µM
same,hemolytic activity (in words),horse erythrocytes,strongest hemhemolytic activity
same,MBEC,"S. aureus mature biofilm; S. aureus, 48 h mature biofilm treated with peptide 37 °C, 24 h, crystal violet, absorbance 595 nm",32 µM
same,MBIC,"S. aureus biofilm; S. aureus, 5 × 10^5 CFU/mL with peptide, 37 °C, crystal violet, absorbance 595 nm",4 µM
same,MBIC,"MRSA biofilm; MRSA, 5 × 10^5 CFU/mL with peptide, 37 °C, crystal violet, absorbance 595 nm",4 µM
same,MBEC,"MRSA mature biofilm; MRSA, 48 h mature biofilm treated with peptide 37 °C, 24 h, crystal violet, absorbance 595 nm",16 µM
same,solubility in PBS,[9],significantly decreased
LPLIAGLWGKIW-NH2 [W-des-Phe1 TPF],MBC,"[1]; ATCC 43816, pH 7.4",128 µM
same,MIC,"[1]; ATCC 43816, pH 7.4",128 µM
same,MBC,"[2]; NCTC 12493, pH 7.4",128 µM
same,MIC,"[2]; NCTC 12493, pH 7.4",128 µM
same,MBC,"[3]; NCTC 12697, pH 7.4",128 µM
same,MIC,"[3]; NCTC 12697, pH 7.4",128 µM
same,MBC,"[4]; NCTC 10418, pH 7.4",128 µM
same,MIC,"[4]; NCTC 10418, pH 7.4",128 µM
same,MBC,"[5]; NCTC 10788, pH 7.4",32 µM
same,MIC,"[5]; NCTC 10788, pH 7.4",32 µM
same,MBC,"[6]; ATCC 27853, pH 7.4",> 128 µM
same,MIC,"[6]; ATCC 27853, pH 7.4",> 128 µM
same,turbidity in culture media,"[10]; peptide 1 mg/mL diluted from 10 mg/mL in water, PBS, RPMI1640, RPMI1640 with 10% FBS, TSB, MHB",increased outstandingly
same,salting-out effect in Na2HPO4 solutions,"[10]; peptide 1 mg/mL, 0.25, 0.5 and 1 M Na2HPO4",strongest salting-out effect
same,Helix Content % DPPC,[7],10.1%
same,Helix Content % DPPG/DPPE,[7],26.9%
same,Helix Content % 50% TFE,[7],27.7%
same,MBEC,"S. aureus mature biofilm; mature biofilm, 48 h",> 128 µM
same,MBIC,S. aureus biofilm; biofilm,64 µM
same,MBIC,MRSA biofilm; biofilm,128/>128 µM
same,MBEC,"MRSA mature biofilm; mature biofilm, 48 h",128/>128 µM
same,"order of retention time (RP-HPLC, used as estimate of overall hydrophobicity)",[8],TPF> des-Phe1 TPF> W-des-Phe1 TPF> dW-des-Phe1 TPF
